Like-named read-outs stand apart in the source and are kept apart here.
Tests used:
estrogen receptor [1] = assay: Fungal estrogen receptor inhibition, Fusarium; type: binding
androgen receptor [2] = assay: Androgen receptor inhibition, Fusarium calorum; type: binding
Description: (§1) In the second series of experiments using the compound of the invention 2-(5-hydroxyhept-1-yl) bicyclo[3.3.0]octan-7-one {hexahydro-4-(5-hydroxyheptyl)-2-(1H)-pentalenone} upon zeralenone and zearalanol production, zearalenone and zearalanol were chemically obtained from Sigma Chemical Co., St. Louis, Mo.

androgen receptor [3] = assay: Androgen receptor inhibition, Fulsarium gravarium; type: binding
Description: as §1

androgen receptor [4] = assay: Androgen receptor inhibition, Candida; type: binding
progesterone receptor [5] = assay: Progesterone receptor inhibition, Candida; type: binding
androgen receptor [6] = assay: Androgen receptor inhibition, Torulopsis; type: binding
estrogen receptor [7] = assay: Estrogen receptor inhibition, Torulopsis; type: binding
androgen receptor [8] = assay: Androgen receptor inhibition, Actinomyces; type: binding
progesterone receptor [9] = assay: Progesterone receptor inhibition, Actinomyces; type: binding
progesterone receptor [10] = assay: Progesterone receptor inhibition, Coccodia; type: binding
androgen receptor [11] = assay: Androgen receptor inhibition, Blastomyces; type: binding
androgen receptor [12] = assay: Androgen receptor inhibition, Cryptococci; type: binding
progesterone receptor [13] = assay: Progesterone receptor inhibition, Cryptococci; type: binding
androgen receptor [14] = assay: Androgen receptor inhibition, Sporotrichum; type: binding
estrogen receptor [15] = assay: Estrogen receptor inhibition, Sporotrichum; type: binding
androgen receptor [16] = assay: Androgen receptor inhibition, Norcardia; type: binding
androgen receptor [17] = type: binding; conditions: Histoplasma
estrogen receptor [18] = assay: Estrogen receptor inhibition, Pseudomonas testosteroni; type: binding
progesterone receptor [19] = assay: Progesterone receptor inhibition, Pseudomonas testosteroni; type: binding
estrogen receptor [20] = assay: Estrogen receptor inhibition, Saccharomyces cerevisiae strains; conditions: DHT:anti-androgen 1:1,000
[21] = system: androgen binding sites in a melanoma; assay: Blocking of androgen binding sites in a melanoma; conditions: 1:1000 of dihydrotestosterone to the tested compound
estrogen receptor [22] = assay: Effect on estrogen receptors in melanoma; type: binding; conditions: 1:1000 DHT to compound
[23] = molecular target: T1, androgen receptor sites (keloid cytosol) (Homo sapiens, UniProt P10275); assay: Keloid cytosol steroid binding assay, androgen (DHT)
T1 construct: Surgical excision of keloids was performed from clinic and private patient populations; from tissue; host or cells: cytosol of surgically excised keloids
T1 sequence (P10275 1-920): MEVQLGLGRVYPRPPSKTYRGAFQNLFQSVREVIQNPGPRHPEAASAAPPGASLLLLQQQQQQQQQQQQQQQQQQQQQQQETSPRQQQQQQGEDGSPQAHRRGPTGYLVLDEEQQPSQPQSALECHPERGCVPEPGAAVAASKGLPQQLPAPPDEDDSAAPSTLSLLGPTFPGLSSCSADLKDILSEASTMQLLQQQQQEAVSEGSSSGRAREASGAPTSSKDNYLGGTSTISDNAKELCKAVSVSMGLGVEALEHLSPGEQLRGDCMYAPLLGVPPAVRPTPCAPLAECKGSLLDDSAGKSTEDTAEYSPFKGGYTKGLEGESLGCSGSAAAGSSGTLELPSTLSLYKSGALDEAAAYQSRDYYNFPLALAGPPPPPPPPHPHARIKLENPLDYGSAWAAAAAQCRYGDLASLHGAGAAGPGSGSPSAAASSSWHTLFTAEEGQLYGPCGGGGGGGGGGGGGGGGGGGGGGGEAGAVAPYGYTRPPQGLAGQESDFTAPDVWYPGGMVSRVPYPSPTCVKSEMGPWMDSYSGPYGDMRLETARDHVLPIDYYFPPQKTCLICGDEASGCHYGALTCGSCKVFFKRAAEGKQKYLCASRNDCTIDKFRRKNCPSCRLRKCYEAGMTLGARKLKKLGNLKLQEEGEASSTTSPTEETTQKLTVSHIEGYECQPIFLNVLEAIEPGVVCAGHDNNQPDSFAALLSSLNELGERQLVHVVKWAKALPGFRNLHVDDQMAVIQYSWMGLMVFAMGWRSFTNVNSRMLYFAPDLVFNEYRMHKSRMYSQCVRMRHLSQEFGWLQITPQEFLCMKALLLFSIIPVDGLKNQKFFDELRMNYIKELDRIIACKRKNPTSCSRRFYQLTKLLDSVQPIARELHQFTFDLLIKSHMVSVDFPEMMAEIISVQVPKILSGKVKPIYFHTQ

[24] = system: estrogen receptor (keloid cytosol); assay: Keloid cytosol steroid binding assay, estrogen; design: species or system human
estrogen receptors = assay: Effect on estrogen receptors in breast capsule tissue; type: binding, human; conditions: breast capsule / hard band tissue
Protocol: "Hard fibrous band" formation was retarded around breast implants following augmentation surgery.
The tissues were evaluated, with appropriate controls, for effects by the novel anti-androgen.

androgen receptor sites = molecular target: T2, androgen receptor sites (Homo sapiens, UniProt P10275); assay: Retarding collagen formation through blockage of androgen receptor sites; conditions: Example 53
T2 construct: other tests of the document use human skin, keloid and fibroblasts with 3H-DHT
Protocol: Accordingly, to treat arteriosclerosis, an oral dosage unit formulation is produced which contains 2 mg of 2-(5-methoxyhept-1-yl)bicyclo [3.3.0]octan-7-one {hexahydro-4-(5-methoxyheptyl)-2(1H)-pentalenone}, which is delivered to a subject once every six hours.

CCC(O)CCCCC1CCC2CC(=O)CC12 (stereo not shown) [Compound IV]
% Estrogen Receptor Inhibition (estrogen receptor [1]; fungal hormone Zeralanol): 0%
% Estrogen Receptor Inhibition (estrogen receptor [1]; fungal hormone Zeralenone): 0%
% Androgen Receptor Inhibition (androgen receptor [2]; DHT:anti-androgen 1:1): 29%
% Androgen Receptor Inhibition (androgen receptor [2]; DHT:anti-androgen 1:10): 37%
% Androgen Receptor Inhibition (androgen receptor [2]; DHT:anti-androgen 1:100): 79%
% Androgen Receptor Inhibition (androgen receptor [2]; DHT:anti-androgen 1:1,000): 90%
% Androgen Receptor Inhibition (androgen receptor [3]; DHT:anti-androgen 1:1): 26%
% Androgen Receptor Inhibition (androgen receptor [3]; DHT:anti-androgen 1:10): 49%
% Androgen Receptor Inhibition (androgen receptor [3]; DHT:anti-androgen 1:100): 67%
% Androgen Receptor Inhibition (androgen receptor [3]; DHT:anti-androgen 1:1,000): 87%
% Androgen Receptor Inhibition (androgen receptor [4]): 92%
% Progesterone Receptor Inhibition (progesterone receptor [5]): 7%
% Androgen Receptor Inhibition (androgen receptor [6]): 77%
% Estrogen Receptor Inhibition (estrogen receptor [7]): 0%
% Androgen Receptor Inhibition (androgen receptor [8]): 90%
% Progesterone Receptor Inhibition (progesterone receptor [9]): 0%
% Progesterone Receptor Inhibition (progesterone receptor [10]): 4%
% Androgen Receptor Inhibition (androgen receptor [11]): 49%
% Androgen Receptor Inhibition (androgen receptor [12]): 76%
% Progesterone Receptor Inhibition (progesterone receptor [13]): 4%
% Androgen Receptor Inhibition (androgen receptor [14]): 29%
% Estrogen Receptor Inhibition (estrogen receptor [15]): 0%
% Androgen Receptor Inhibition (androgen receptor [16]): 50%
% Androgen Receptor Inhibition (androgen receptor [17]): 47%
% Estrogen Receptor Inhibition (estrogen receptor [18]; strain 1): 0%
% Estrogen Receptor Inhibition (estrogen receptor [18]; strain 2): 0%
% Estrogen Receptor Inhibition (estrogen receptor [18]; strain 3): 0%
% Estrogen Receptor Inhibition (estrogen receptor [18]; strain 4): 0%
% Progesterone Receptor Inhibition (progesterone receptor [19]; strain 1): 0%
% Progesterone Receptor Inhibition (progesterone receptor [19]; strain 2): 0%
% Progesterone Receptor Inhibition (progesterone receptor [19]; strain 3): 0%
% Progesterone Receptor Inhibition (progesterone receptor [19]; strain 4): 0%
% Estrogen Receptor Inhibition (estrogen receptor [20]; strain 1): 0%
% Estrogen Receptor Inhibition (estrogen receptor [20]; strain 2): 0%
% Estrogen Receptor Inhibition (estrogen receptor [20]; strain 3): 0%
% Estrogen Receptor Inhibition (estrogen receptor [20]; strain 4): 0%
% Estrogen Receptor Inhibition (estrogen receptor [20]; strain 5): 0%
% Estrogen Receptor Inhibition (estrogen receptor [20]; strain 6): 0%
% Estrogen Receptor Inhibition (estrogen receptor [20]; strain 7): 0%

CCC(CCCCC1CCC2CC(=O)CC12)OC (stereo not shown) [Compound V, 2-(5-Methoxyhept-1-yl)bicyclo[3.3.0]octan-7-one]
block of androgen binding sites in a melanoma [21]: 59-80%
effect on estrogen receptors in melanoma tissue (estrogen receptor [22]): no significant effect
% Block ([23]; patient 1, suprapubic): 43%
% Block ([23]; patient 2, chest): 24%
% Block ([23]; patient 3, neck): 57%
% Block ([23]; patient 4, inguinal groin): 86%
effect on binding of estrogen [24]: no effect
effect on estrogen receptors (estrogen receptors): without any significant effects
effect on estrogen receptors (estrogen receptors; listed as 2-(5-methoxyhept-1-yl)bicyclo[3.3.0]octan-7-one): no significant effects
retarding collagen formation through blockage of androgen receptor sites (androgen receptor sites): excellent results in retarding collagen formation through blockage of androgen receptor sites
